The test relates to CEM cells HIV-1 protection, formazan growth assay. In words: NCI AIDS Antiviral Assay. The note with it: for IC50: measured here: growth of uninfected CEM cells. The method in brief:
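Category rules: moderately active means at least 50% protection on retest, and confirmed active means 100% protection reproducibly. The underlying data came from a formazan growth assay in HIV-1-infected CEM cells.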

The source made the active and inactive calls.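 How the source made its calls: active means compounds giving half or more protection of infected cells from virus-caused growth loss, again on retest; inactive means the rest.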

For the molecule `CCSc1nc(-c2ccc(OC)cc2)c(C#N)c(=O)n1C1OCC(OC(C)=O)C(OC(C)=O)C1OC(C)=O` (stereo not given), the EC50 is greater than 200 µM and the IC50 is greater than 200 µM.
For the molecule `C[C@]12CC[C@H]3[C@@H](C[C@@H](O)[C@]45C[C@@H]4CC[C@]35C)[C@@H]1CC[C@@]21C=CC(=O)O1`, the EC50 is greater than 200 µM and the IC50 is 95.5 µM.
Regarding `COCOc1cc(OCOC)cc(C(=O)Oc2ccccc2)c1`, the EC50 is greater than 200 µM and the concentration for half-maximal inhibition (IC50) is greater than 200 µM.
For `O=C(O)c1ccc(C2=Cc3cc(Cl)ccc3OC2)cc1`, the EC50 is greater than 66.1 µM and the half-inhibitory concentration (IC50) was greater than 66.1 µM.
Regarding `CC1(C)OC(=O)C(=C=[N-])/C1=C\[n+]1ccccc1`, the EC50 is greater than 417 µM and the half-maximal inhibitory concentration (IC50) is greater than 417 µM.
`O=C(O)c1nn(-c2ccccc2)c2c1CSc1ccccc1-2`: the EC50 is greater than 200 µM and the concentration for half-maximal inhibition (IC50) was 158 µM.
For the molecule `CC(C)[Si](O[C@@H]1CCC[C@@]23O[C@@H]2CC2C(=O)c4c(O)cccc4C(=O)[C@@]2(O)[C@@H]13)(C(C)C)C(C)C` (stereo not given in full), the EC50 was greater than 200 µM and the 50% inhibitory concentration (IC50) was determined as 14.1 µM.
On the same counts, the results for `COC(=O)c1cc2c(cc1CC(Cc1ccc3c(c1)CCC3)C(=O)OC)CCC2` (stereo not given) are greater than 200 µM and 126 µM.
With `CC1=C(C(=O)Nc2ccc(Cl)c(Cl)c2)C(c2ccc([N+](=O)[O-])cc2)C(C(=O)Nc2ccc(Cl)c(Cl)c2)=C(C)N1`, the EC50 was greater than 8.71 µM and the half-maximal inhibitory concentration (IC50) is 5.62 µM.
On the same counts, the results for `Cc1ccc(S(=O)(=O)OC2CCN(C)CC2)cc1` are greater than 200 µM and greater than 200 µM.
For the molecule `COc1ccc(C[C@H]2C(=O)OC[C@@H]2Cc2ccc(OC)c(OC)c2)cc1O`, the EC50 was greater than 200 µM and the half-maximal inhibitory concentration (IC50) is 70.8 µM.
For the molecule `CCCn1c2c(c3ccccc3c1=O)C(=O)c1ccccc1-2`, the EC50 was greater than 18.2 µM and the IC50 was greater than 18.2 µM.
As for `CC(C)(C)c1cc(N=O)cc(C(C)(C)C)c1O`, the EC50 was greater than 200 µM and the IC50 was 18.6 µM.
On the same counts, the results for `CNC(=S)c1nnsc1N` are greater than 200 µM and 0.302 µM.
`Cc1ccc2c(c1)C(=C(C#N)C#N)CCCS2(=O)=O`: the EC50 was greater than 200 µM and the IC50 was greater than 200 µM.
`Nc1ccc2c(c1)nc1n2C(c2c(F)cccc2F)SC1` (stereo not given): the EC50 was greater than 200 µM and the 50% inhibitory concentration (IC50) was 135 µM.
On the same counts, the results for `COc1ccc(CCN(C)CCCC2(C#N)c3ccccc3-c3ccccc32)cc1OC` are greater than 60.3 µM and 47.9 µM.
On the same counts, the results for `Cn1c(=O)c([N+](=O)[O-])c2[nH]ncn2c1=O` are greater than 200 µM and greater than 200 µM.
On the same counts, the results for `O=C(O)c1ccccc1CC1Cc2ccccc2C1` are greater than 200 µM and greater than 200 µM.
In the case of `Nc1nc(Cl)cc(NCC2(CCO)CCC2)n1`, the EC50 is greater than 200 µM and the IC50 worked out at 138 µM.
As for `OCC(O)C(OC1OC(CO)C(O)C(O)C1O)c1nn(-c2ccc(Cl)cc2)c2nc3cc(Cl)c(Cl)cc3nc12` (stereo not given), the result was inactive.
For the molecule `O=C1CCCC(=O)N1CCc1c[nH]c2ccccc12`, the outcome was inactive.
On the same count and under the same terms, under `CC(=O)OC1(C(C)=O)CC2(c3ccccc3)OC1(c1ccccc1)c1ccccc12` (stereo not given) stands “inactive”.
As to `Cc1cc(N(CCC#N)CCC#N)ccc1N=Nc1ccc(Br)cc1`, the EC50 was greater than 6.92 µM and the concentration for half-maximal inhibition (IC50) is greater than 6.92 µM.
In the case of `CC1(C)OC2OC(COC(=O)C=[N+]=[N-])C3OC(C)(C)OC3C2O1` (stereo not given), the EC50 was greater than 200 µM and the IC50 is greater than 200 µM.
Turning to `O=C(/C=C/c1ccccc1Cl)c1ccc(Cl)c(Cl)c1`, the EC50 was greater than 8.71 µM and the IC50 is greater than 8.71 µM.
For the molecule `COC1(OC)CCC2(C)OC(c3ccccc3)C1O2` (stereo not given), the outcome was inactive.
For the molecule `N/C(Cc1ccc(Cl)cc1)=N/O`, the EC50 is greater than 200 µM and the IC50 is greater than 200 µM.
With `CN(Cc1cnc2nc(N)nc(N)c2n1)c1ccc(C(=O)NC(CCC(=O)NCC(P(=O)(O)O)P(=O)(O)O)C(=O)O)cc1` (stereo not given), the EC50 is greater than 200 µM and the 50% inhibitory concentration (IC50) is 1.23 µM.
On the same counts, the results for `O=C(C[n+]1ccccc1)N=N/C(C(=O)Nc1c(Cl)c(O)c2ccccc2c1O)=C1/C(=O)Oc2cc(O)ccc2C1=O` are greater than 22.4 µM and 12 µM.
Regarding `CCN=C(N)CSS(=O)(=O)O`, the EC50 was greater than 200 µM and the 50% inhibitory concentration (IC50) was greater than 200 µM.
For `O=C1C(CN2CCCC2)CCCC1CN1CCCC1` (stereo not given), the outcome was inactive.
On to `CCOP(=O)(OCC)C(C)(C)OC(=O)NC#N`, for which the EC50 was greater than 200 µM and the IC50 was greater than 200 µM.
In the case of `CCOC(=O)c1cnc(SCc2ccc(Cl)c(Cl)c2)nc1N1CC1C` (stereo not given), the EC50 is greater than 200 µM and the 50% inhibitory concentration (IC50) is 6.46 µM.
On the same counts, the results for `CCOC(=O)C(CN1CCN(CC(NC=O)(C(=O)OCC)C(=O)OCC)CC1)(NC=O)C(=O)OCC` are greater than 200 µM and 35.5 µM.
On the same counts, the results for `C/C=N\n1c(C)n[nH]c1=O` are greater than 200 µM and greater than 200 µM.
On the same counts, the results for `Nc1ccc(N=Nc2ccc(C(=O)O)cc2)c(N)c1N=Nc1ccc(N=Nc2ccc(O)c(C(=O)O)c2)cc1` are 49 µM and greater than 100 µM.
In the case of `Cc1ccsc1/C=N/Nc1ccc2ccccc2n1`, the EC50 was greater than 200 µM and the concentration for half-maximal inhibition (IC50) came to 18.6 µM.
On the same counts, the results for `O=C(C=C1SCCS1)/C=C\c1ccc(Cl)cc1` are greater than 35.5 µM and greater than 35.5 µM.
In the case of `Cc1oc2nc(N(C)C)nc(NN)c2c1C`, the outcome was inactive.
As to `Cc1cc(Cc2cc(C)c(NC(=O)C(=O)C3CCC4=C(SC5C=CC=CC5N4)C3=O)c(C(C)C)c2)cc(C(C)C)c1NC(=O)C(=O)C1CCC2=C(SC3C=CC=CC3N2)C1=O` (stereo not given), the EC50 was greater than 41.7 µM and the IC50 is 12 µM.
As for `O=C1N[C@@H](Cc2ccccc2)C(=O)N2CCCC[C@H]12`, the outcome was inactive.
For `CC(=O)c1c(C)nc(SSc2nc(C)c(C(C)=O)c(-c3ccc(Cl)cc3)c2C#N)c(C#N)c1-c1ccc(Cl)cc1`, the EC50 is greater than 200 µM and the IC50 was greater than 200 µM.
As to `O=c1cc(CSc2c(-c3ccccc3)c(=O)n(-c3ccccc3)c(=S)n2-c2ccccc2)[nH]c(=O)[nH]1`, the EC50 is greater than 200 µM and the IC50 is greater than 200 µM.
Regarding `CC1(C)CCCCCC(O)C(O)CCC(C)(C)C1=O` (stereo not given), the EC50 was greater than 200 µM and the IC50 is greater than 200 µM.
Regarding `O=C(O)/C(Cl)=C(\Cl)C(=O)Nc1ccc(Cl)cc1Cl`, the result was inactive.
As to `Cc1ncc(CO)c(CO)c1S`, the EC50 is greater than 200 µM and the IC50 is greater than 200 µM.
In the case of `CC(=O)OC1CCC2(C)C(C)C(C)CCC2(O)C1O` (stereo not given), the EC50 is greater than 200 µM and the IC50 came out at 15.1 µM.
On the same counts, the results for `CC(C)CC1[C@@H](OCc2ccccc2)COS(=O)(=O)N1Cc1ccccc1` (stereo not given in full) are greater than 200 µM and 77.6 µM.
On the same counts, the results for `CC1([N+](=O)[O-])COP(=O)(Nc2cccc(Cl)c2)OC1` (stereo not given) are greater than 813 µM and 398 µM.
On the same counts, the results for `c1ccc(COC2C3COC(O3)C(OCc3ccccc3)C2OCc2ccccc2)cc1` (stereo not given) are greater than 200 µM and 15.1 µM.
As to `COc1ccc(N=Nc2c(C)c(C#N)c(=S)n(C3OC(COC(C)=O)C(OC(C)=O)C(OC(C)=O)C3OC(C)=O)c2-c2ccccc2)cc1` (stereo not given), the EC50 was greater than 200 µM and the IC50 stood at 126 µM.
In the case of `CCOC(=O)c1cnc2[nH]ccn2c1=O`, the EC50 was greater than 200 µM and the IC50 is greater than 200 µM.
Take `CCOC(C)CCCS(=O)(=O)O` (stereo not given): the EC50 was greater than 200 µM and the IC50 is greater than 200 µM.
As for `Cc1cc(NS(=O)(=O)c2ccc(Nc3c4ccccc4nc4c(C(=O)N5CCN(CCO)CC5)ccc(Cl)c34)cc2)no1`, the EC50 was greater than 47.9 µM and the IC50 was greater than 47.9 µM.
On to `C(=N\NC1=NCCN1)/c1ccc(-c2cn3cc(/C=N/NC4=NCCN4)ccc3n2)cc1`, for which the EC50 was greater than 53.7 µM and the IC50 came out at 3.72 µM.
Regarding `O=S1(=O)OCCCO1`, the EC50 is greater than 1820 µM and the IC50 was greater than 1820 µM.
With `COc1ccc(-c2onc(-c3c(C)cc(C)cc3C)c2C2=NCCCN2)cc1`, the EC50 was greater than 50.1 µM and the IC50 was greater than 50.1 µM.
For `NC(=S)N/N=C(\Cc1nc2ccc(Cl)cc2[nH]c1=O)C(=O)Nc1ccc(Cl)cc1`, the EC50 was greater than 41.7 µM and the concentration for half-maximal inhibition (IC50) is greater than 41.7 µM.
Consider `Nc1cc(Cl)ccc1SSc1ccc(Cl)cc1N`, for which the EC50 is greater than 200 µM and the IC50 worked out at 12 µM.
Take `COc1ccc(/C=C/C(=O)N[C@@H]2CCN3CCCC23)cc1` (stereo not given in full): the result was inactive.
As for `Cc1ccc(NC(=O)NC23CC4CC(CC(F)(C4)C2)C3)cc1`, the EC50 was greater than 61.7 µM and the IC50 is greater than 61.7 µM.
As to `COC(=O)c1c(C(=O)OC)c2cc(C(=O)c3ccccc3)ccn2c1Cl`, the EC50 was greater than 26.9 µM and the IC50 was greater than 26.9 µM.
Consider `CC1=CC(=C(c2ccc(N)c(S(=O)(=O)O)c2)c2ccc(N)c(S(=O)(=O)O)c2)C=C(S(=O)(=O)O)C1=N`, for which the outcome was inactive.
Turning to `COc1ccc(/C=C2\C=Cc3ccccc32)cc1`, the EC50 is greater than 16.2 µM and the IC50 came out at 13.8 µM.
For the molecule `Cc1cccc(N=Nc2c(C)nn(C(=O)c3ccccc3)c2C)c1`, the result was inactive.
For `Cn1cnc([N+](=O)[O-])c1Sc1ccccn1`, the EC50 is greater than 1050 µM and the IC50 was determined as 42.7 µM.
Consider `CCOC(=O)c1cc(/C=C/C(C)=C/C(=O)OC)oc1C`, for which the EC50 is greater than 67.6 µM and the IC50 is greater than 67.6 µM.
For the molecule `CN(C)C1=CC(=O)C(=O)c2cnc(N(C)C)cc21`, the result was inactive.
Regarding `C=CCOC(=O)/C(=C\c1ccc(OC)c(OC)c1)c1ccc(OC)c(OC)c1`, the EC50 is greater than 200 µM and the IC50 was greater than 200 µM.
Take `O=C1C2=C(Nc3ccccc3N2)OC1c1ccncc1` (stereo not given): the EC50 was greater than 38 µM and the half-maximal inhibitory concentration (IC50) is greater than 38 µM.
In the case of `COP1(=S)OCC(C(C)(C)C)CO1` (stereo not given), the EC50 is greater than 57.5 µM and the IC50 was greater than 57.5 µM.
Regarding `COC(=O)/C=C/C(=O)C1C(C(=O)OC)C2(C(=O)OC)CCC1(C(=O)OC)N2` (stereo not given), the outcome was inactive.
`COC(=O)C1=C(O)C(O)=C(C(=O)OC)C1`: the EC50 is 407 µM and the IC50 was 955 µM.

Broadly, the EC50 is the midpoint of the concentration-response curve. In general, IC50 refers to the point on the concentration scale where inhibition reaches its midpoint. Lower therefore signals greater potency.

Source of the values: PubChem BioAssay AID179 (DTP/NCI, 2004).
